Source: patent publication US20240336617A1, “Substituted Bimane Compounds and Methods of Use Thereof” (THE TRUSTEES OF THE UNIVERSITY OF PENNSYLVANIA, priority 2023, published 2024)

Key:
[1] = Fluorescence (emission) measurements; type: physicochemical; conditions: for Emission λem: Table S12; for maximum emission wavelength (λem): 50:50 ACN/PBS, excitation at λabs;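 as to all read-outs here: fluorescence emission spectra recorded on a spectrofluorometer, with each compound excited at its own absorption maximum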
Protocol: The fluorescence spectrum of each derivative (150 μL) was measured on a Photon Technology International (PTI) QuantaMaster™ 40 fluorescence spectrometer by excitation at the maximum absorption wavelength for each compound.
The fluorescence spectrum of each derivative (150 μL) was measured on a Photon Technology International (PTJ) QuantaMaster™ 40 fluorescence spectrometer by excitation at the maximum absorption wavelength for each compound.

[2] = Fluorescent quantum yield (QY) measurements; type: physicochemical; conditions: for Fluorescence QY: ACN/PBS buffer (1:1 v/v); for Fluorescence quantum yield / QY: in ACN
Method in brief: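 Fluorescence quantum yield was measured for each dye by first recording the incident excitation light spectrum with 1 mL of solvent. JASCO Quantum Yield Software then computed QY as the dye's fluorescence intensity divided by the drop in incident light intensity between dye-absent and dye-present samples. A full incident excitation spectrum with this setup needs an excitation wavelength of at least 360 nm.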

[3] = Viscosity measurements (glycerol mixtures); type: physicochemical
Protocol: As a representative example, the viscosity of 7k (25 μM, 10 mM stock in DMSO) in glycerol/methanol mixtures were measured, varying the glycerol percentage 0-99%.
Viscosity measurements. As a representative example, we have measured the viscosity of 5k (25 μM, 10 mM stock in DMSO) in glycerol/ethylene glycol (G/EG) mixtures, varying the glycerol percentage 0-90%. Then, the emission spectra were recorded using a PTI QuantaMaster™ 40 fluorescence spectrometer by excitation with 385 nm wavelength.

αS fibrils [4] = target: T1, αS fibrils (Homo sapiens, UniProt P37840); assay: Probe binding (Kd) measurements with αS fibrils; conditions: 100 μM αS PFFs; probe 10 nM-10 μM
T1 construct: intein-His6 (C, cleaved yes); made in house; host or cells: Escherichia coli BL21
Protocol: (§1) αS fibrils (100 μM) in PBS buffer were incubated with varying 7k, 7l, and 7m concentrations (0, 0.01, 0.1, 0.5, 1, 3, 5, 7, and 10 μM) from concentrated 10 mM DMSO stock solutions in Greiner 96 well flat black […] plates at 37° C. with shaking at 500 rpm for 15 min in an IKA MS3 control orbital shaker (Wilmington, NC, USA). After 15 min incubation, fluorescence intensity measurements were obtained with a Tecan Spark plate reader (Mannedorf, Switzerland) by excitation with λex/λem=424/570 nm for 7k, λex/λem=463/580 nm for 7l, and λex/λem=484/620 nm for 7m, using the following parameters: excitation and emission bandwidth 5 nm, delay time 0 μs, integration time 40 μs. Averages and standard deviations were calculated from at least 3 independent measurements at each probe concentration. The resulting binding curve was fit to the following equation (modified from the One site—Total, accounting for ligand depletion model) in Graphpad Prism 9 (San Diego, CA, USA), from which the Kd was determined.
Fluorescence Spectra with αS Fibrils
as §1, with “5k” for “7k, 7l, and 7m”, “with” for “with λex/λem=424/570 nm for 7k,”, “5k,” for “7l, and λex/λem=484/620 nm for 7m,”

αS fibrils [5] = target: T1, αS fibrils; assay: Absorbance spectra with αS fibrils; type: physicochemical; conditions: for λabs / λabs, maximum absorption wavelength: dye 10 μM; for ε / E, molar absorptivity (ε): measured at λabs; for λabs, maximum absorption wavelength / E, molar absorptivity (ε): presence of αS PFFs (+); for λabs, maximum absorption wavelength: PFFs 50 μM, mixture of bound and unbound dye; for increase in molar absorptivity with αS fibrils: presence versus absence of αS fibrils
Protocol: (§2) Absorption measurements were performed using Thermo Scientific Genesys 150 UV Vis spectrometer. Absorption spectra of 10 μM probes (concentrated stock solution prepared as 10 mM in DMSO) (7j, 7k, 7l, and 7m) in PBS buffer were measured in the absence and presence of 50 μM αS fibrils (stock solution 100 μM αS fibrils in PBS buffer).
as §2, with “(5j” for “(7j, 7k, 7l,”, “5k)” for “7m)”

αS fibrils [6] = target: T1, αS fibrils; assay: Fluorescence lifetime measurements of probes with αS fibrils; type: physicochemical; conditions: for Fluorescence Lifetime: 100 μM dye and PFFs; for Lifetime: with αS fibrils in PBS buffer, probe and αS fibrils 100 μM; for fluorescence lifetime when bound to PFFs: 100 μM αS PFFs
Protocol: TCSPC measurements of fluorescence lifetime decays for 100 μM dyes in the presence of 100 μM αS fibrils were collected with the PTI Quantamaster™ 40 using a pulsed LED with a maximum emission at 486 nm. Fluorescence emission was collected at the indicated wavelength for each dye with 20 nm slit widths. The IRF was collected under identical conditions. Data analysis was performed with FluoFit software using an exponential decay model.

αS monomer = target: T2, αS monomer (Homo sapiens, UniProt P37840); assay: Fluorescence with αS monomer (with and without TMAO); type: binding; conditions: for fluorescence turn on with αS monomer: varied probe or protein concentration; for λmax (λem): 10 μM probe, αS monomer 50 μM, excitation 418 nm
T2 construct: intein-His6 (C, cleaved yes); made in house; host or cells: Escherichia coli BL21
Protocol: A 1 mM stock solution of 5k in DMSO and a 6.5 M stock solution of trimethylamine N-oxide (TMAO) in Tris buffer at pH 7.4 were prepared. From these stocks, the fluorescence measurements of probe 5k (10 μM) were carried out with and without αS monomer (50 μM) at different concentrations of TMAO (2 M, 4 M and 6 M) diluted with the Tris buffer. The solutions were mixed and then the spectra were measured using a Photon Technology International (PTI) QuantaMaste 40 fluorescence spectrometer with excitation at 418 nm.

[7] = Fluorescent quantum yield (QY) measurements; type: physicochemical; conditions: absence of αS PFFs (−); 100 μM dye
αS fibrils [8] = target: T1, αS fibrils; assay: Fractionation (total, supernatant, pellet) of αS fibrils with probe; type: binding; conditions: T, S, P fractions
[9] = 25 μM in ACN/PBS buffer (1:1 v/v), pH 7.4

| Compound | Emission λmax ([1]; 25 μM in ACN) [nm] | Emission λmax [1, 9] [nm] | Stokes shift ([1]; ACN/PBS buffer (1:1 v/v)) [nm] | Stokes shift ([1]; in ACN) [nm] | Fluorescence QY [2] [%] | Fluorescence quantum yield [2] [%] | QY [2] | Kd (αS fibrils [4]) [nM] | λabs (αS fibrils [5]; absence of αS PFFs) [nm] | ε (αS fibrils [5]; absence of αS PFFs) [M⁻¹ cm⁻¹] | λabs (αS fibrils [5]; presence of αS PFFs, PFF 50 μM) [nm] | ε (αS fibrils [5]; presence of αS PFFs) [M⁻¹ cm⁻¹] | Fluorescence Lifetime (αS fibrils [6]; presence of αS PFFs) [ns] | Lifetime (αS fibrils [6]) [ns] | fluorescence turn on with αS monomer (αS monomer) | Emission λem ([1]; 25 μM in ACN) [nm] | maximum emission wavelength (λem) [1] [nm] | Fluorescence quantum yield ([2]; Table S12) [%] | λabs, maximum absorption wavelength (αS fibrils [5]) [nm] | E, molar absorptivity (ε) (αS fibrils [5]) [M⁻¹ cm⁻¹] | also measured |
| --- | --- | --- | --- | --- | --- | --- | --- | --- | --- | --- | --- | --- | --- | --- | --- | --- | --- | --- | --- | --- | --- |
| Cc1c(C)n2c(/C=C/c3ccc(N4CCOCC4)cc3)c(C)c(=O)n2c1=O [Compound 7k, (E)-2,3,6-trimethyl-5-(4-morpholinostyryl)-1H,7H-pyrazolo[1,2-a]pyrazole-1,7-dione] | 565 | 603 | 217 | 187 | 1.0 | 6.9 | about 7% | 2450 ± 1240 | 370 | 17205 | 356 | 49869 | 2.09 | 2.09 ± 0.01 | no significant fluorescence turn on signal |  |  |  |  |  | increase in fluorescence intensity with % glycerol ([3]; glycerol/MeOH mixtures): > 6 fold; red-shift with % glycerol ([3]; glycerol/MeOH mixtures): 12 nm |
| Cc1c(C)n2c(/C=C/c3ccc(N)cc3)c(C)c(=O)n2c1=O [Compound 7j, (E)-3-(4-aminostyryl)-2,5,6-trimethyl-1H,7H-pyrazolo[1,2-a]pyrazole-1,7-dione] | 540 | 583 | 198 | 162 | 0.7 | 1.5 | 2% |  | 372 | 15385 | 359 | 45956 | 1.90 | 1.90 ± 0.01 |  | 540 | 583 | 1.5 | 359 | 45956 | increase in molar absorptivity with αS fibrils (αS fibrils [5]): 3 fold; fluorescence lifetime when bound to PFFs (αS fibrils [6]): 1.90 ns; Fluorescence Lifetime (αS fibrils [6]; presence of αS PFFs (+)): 1.90 ns; Fluorescence QY [7]: 0.17% |
| Cc1c(C)n2c(/C=C/C=C/c3ccc(N(C)C)cc3)c(C)c(=O)n2c1=O [Compound 7m, 3-((1E,3E)-4-(4-(dimethylamino)phenyl)buta-1,3-dien-1-yl)-2,5,6-trimethyl-1H,7H-pyrazolo[1,2-a]pyrazole-1,7-dione] | 620 | 640 | 204 | 210 | 0.6 | 13.5 | 14% | 420 ± 250 | 416 | 19024 | 412 | 52234 | 1.27 | 1.27 ± 0.01 |  |  | 640 |  |  |  | Stokes shift ([1]; ACN/PBS): 204 nm; fractionation of αS fibrils with probe (αS fibrils [8]): retained its fluorescence in the pellet fraction more than 2a |
| Cc1c(C)n2c(/C=C/c3ccc(N(C)C)cc3)c(C)c(=O)n2c1=O [Compound 7l, (E)-3-(4-(dimethylamino)styryl)-2,5,6-trimethyl-1H,7H-pyrazolo[1,2-a]pyrazole-1,7-dione] | 568 | 604 | 186 | 166 | 0.5 | 7.5 | about 7% | 1450 ± 430 | 393 | 20071 | 386 | 43864 | 2.27 | 2.27 ± 0.01 | occurs only with αS fibrils, not monomers | 568 | 604 | 7.5 | 386 | 43864 | QY ([2]; listed as 5k): 7.5%; increase in fluorescence intensity with increased % glycerol ([3]; ethylene glycol/glycerol mixtures): 3.7 fold; increase in molar absorptivity with αS fibrils (αS fibrils [5]): 2.2 fold; fluorescence lifetime when bound to PFFs (αS fibrils [6]): 2.27 ns; Fluorescence Lifetime (αS fibrils [6]; presence of αS PFFs (+)): 2.27 ns; λmax (λem) (αS monomer; 2 M TMAO): 567 nm; λmax (λem) (αS monomer; 4 M TMAO): 566 nm; λmax (λem) (αS monomer; 6 M TMAO): 560 nm; fractionation of αS fibrils with probe (αS fibrils [8]): selectively binds to the fibrils; Fluorescence QY [7]: 0.15% |
